Data published in publication PMC9121441 (Molecular pharmaceutics, 2019).
Like-named read-outs stand apart in the source and are kept apart here.

Columns and labels:
CYP2B6 [1] = target: T1, CYP2B6 (Homo sapiens, UniProt P20813); experiment: Ketamine demethylation measured by norketamine formation; type: in vitro ADME; details: for Km at 10 min: human, pH 7.4, Km
T1 sequence (P20813 1-491): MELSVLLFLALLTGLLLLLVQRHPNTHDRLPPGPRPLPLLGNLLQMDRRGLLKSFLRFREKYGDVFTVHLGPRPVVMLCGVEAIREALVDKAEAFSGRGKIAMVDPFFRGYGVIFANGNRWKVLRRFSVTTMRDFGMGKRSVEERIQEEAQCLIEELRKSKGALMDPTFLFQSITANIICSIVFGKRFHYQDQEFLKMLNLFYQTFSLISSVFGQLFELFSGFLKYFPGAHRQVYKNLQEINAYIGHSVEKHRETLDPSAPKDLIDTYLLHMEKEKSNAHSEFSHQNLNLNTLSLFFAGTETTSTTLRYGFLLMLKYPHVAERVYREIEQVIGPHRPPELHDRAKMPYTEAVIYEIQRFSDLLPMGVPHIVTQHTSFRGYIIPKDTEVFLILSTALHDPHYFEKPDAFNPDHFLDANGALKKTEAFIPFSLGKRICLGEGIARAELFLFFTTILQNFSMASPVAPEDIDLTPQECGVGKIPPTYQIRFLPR

CYP2B6 [2] = target: T1, CYP2B6; experiment: Ketamine demethylation measured by formaldehyde formation; details: product formaldehyde
CYP2B6 [3] = target: T1, CYP2B6; details: human liver microsomes; cited from earlier work
[4] = oral ketamine, first-pass metabolism; cited from earlier work
[5] = N-demethylation, product R-norketamine
[6] = N-demethylation, product S-norketamine

Row | Structure (SMILES) | Km (CYP2B6 [1]; [5]) | Vmax (CYP2B6 [1]; [5]) | Clint (CYP2B6 [1]; Vmax/Km, product R-norketamine) | Vmax (CYP2B6 [2]; N-demethylation) | Clint (CYP2B6 [2]; in vitro intrinsic clearance Vmax/Km) | Km at 10 min (CYP2B6 [1]; [6]) | Km (CYP2B6 [3]) | Km at 10 min (CYP2B6 [1]; [5]) | oral bioavailability [4]
1 | CN[C@@]1(c2ccccc2Cl)CCCCC1=O [R-ketamine] | 11 ± 1 µM | 65 ± 1 pmol・min^−1・pmol CYP^−1 | 5.7 ml・min^–1・nmol P450^–1 | 92 ± 2 pmol・min^−1・pmol CYP^−1 | 6.2 ml・min^–1・nmol P450^–1 | – | – | – | –
2 | CN[C@]1(c2ccccc2Cl)CCCCC1=O [S-ketamine] | – | – | – | – | – | 10 ± 1 µM | 44 µM | – | –
3 | CNC1(c2ccccc2Cl)CCCCC1=O (stereo not shown) [ketamine, 2-(2-chlorophenyl)-2-(methylamino)cyclohexan-1-one] | – | – | – | – | – | 5 ± 1 µM | – | 4 ± 1 µM | 15%
